Values quoted from earlier work, collected in Sander's compilation of Henry's law constants (doi:10.1021/je0002282).

Test: Henry solubility constant Hcp at 298.15 K (mol/(m3 Pa))
Settings: reference: Plyasunov and Shock (2001); cited value

Question: For `CC(C)C(=O)C(C)C` [2,4-dimethyl-3-pentanone], which “Henry solubility constant Hcp” value is on record?
Answer: 0.024

Question: With `CC(C)CC(=O)CC(C)C` [2,6-dimethyl-4-heptanone] as the compound, how does the “Henry solubility constant Hcp” value read?
Answer: 0.013

Question: For `CCCCCC(C)=O` [2-heptanone], which “Henry solubility constant Hcp” value is on record?
Answer: 0.072

Question: With `CCCCC(C)=O` [2-hexanone] as the compound, how does the “Henry solubility constant Hcp” value read?
Answer: 0.098

Question: With `CCC(=O)C(C)C` [2-methyl-3-pentanone] as the compound, how does the “Henry solubility constant Hcp” value read?
Answer: 0.053

Question: With `CCCCCCCC(C)=O` [2-nonanone] as the compound, how does the “Henry solubility constant Hcp” value read?
Answer: 0.037

Question: With `CCCCCCC(C)=O` [2-octanone] as the compound, how does the “Henry solubility constant Hcp” value read?
Answer: 0.058

Question: Which “Henry solubility constant Hcp” value does the source give for `CCCC(C)=O` [2-pentanone] here?
Answer: 0.13

Question: Which “Henry solubility constant Hcp” value does the source give for `CCCCCCCCCC(C)=O` [2-undecanone] here?
Answer: 0.019

Question: For `CC(=O)C(C)(C)C` [3,3-dimethyl-2-butanone], which “Henry solubility constant Hcp” value is on record?
Answer: 0.045

Question: For `CCCC(=O)CC` [3-hexanone], which “Henry solubility constant Hcp” value is on record?
Answer: 0.075

Question: Which “Henry solubility constant Hcp” value does the source give for `CC(=O)C(C)C` [3-methyl-2-butanone] here?
Answer: 0.091

Question: For `CCC(=O)CC` [3-pentanone], which “Henry solubility constant Hcp” value is on record?
Answer: 0.11

Question: For `CCCC(=O)CCC` [4-heptanone], which “Henry solubility constant Hcp” value is on record?
Answer: 0.061

Question: With `CC(=O)CC(C)C` [4-methyl-2-pentanone] as the compound, how does the “Henry solubility constant Hcp” value read?
Answer: 0.069

Question: With `CC(C)=O` [propanone] as the compound, how does the “Henry solubility constant Hcp” value read?
Answer: 0.27
